According to patent US11583217B2, “Neurophysiological data analysis using spatiotemporal parcellation” (Firefly Neuroscience Ltd., priority 2012, dated 2023):

Tests used:
Format in all cases: in vivo, human
groups of subjects = assay: Group BNA patterns from EEG data during working memory test (cue/probe); details: vs placebo
From the text: FIGS. 10A-10H show group BNA patterns constructed from EEG data recorded from two groups of subjects during a working memory test. The black dots in FIGS. 10A-10H show the locations of the EEG electrodes, and the color codes in these BNA patterns is the same as defined above. During the test, each subject of the group was asked to memorize an image of a human face (referred to as the “cue”). Two seconds later, the subject was again presented with an image of a human face (referred to as the “probe”) and was asked to determine whether the probe matches the cue.
FIGS. 10A and 10B are group BNA patterns constructed following treatment with a placebo (referred to below as placebo A), and FIGS. 10C and 10D are group BNA patterns constructed following treatment with a Scopolamine. The BNA patterns of the second group are shown in FIGS. 10E-10H, where FIGS. 10E and 10F are group BNA patterns constructed following treatment with a placebo (referred to below as placebo B), and FIGS. 10G and 10H are BNA patterns constructed following treatment with a Ketamine.
The BNA pattern of FIGS. 10A, 10C, 10E and 10G were constructed from the data acquired during the time at which the cue was presented and are recognized by the present inventor as containing information pertaining to the memorization process in the brain (also known in the literature as “encoding”). The BNA patterns of FIGS. 10B, 10D, 10F and 10H were constructed from the data acquired during the time at which the probe was presented, and are recognized by the present inventor as containing information pertaining to the retrieval process in the brain. It is noted that the BNA patterns of FIGS. 10A-10H describe differentiating activity networks. Thus, for example, the BNA pattern of FIG. 10A describes the brain activity during […] that most differentiated between placebo A and Scopolamine, and the BNA pattern of FIG. 10B describes the brain activity during […] that most differentiated between placebo B and Ketamine.

ADHD subject = assay: BNA pattern similarity from EEG data of ADHD subjects treated with MPH
From the text: The BNA patterns shown in FIGS. 6A-6D are associated subject-specific BNA patterns constructed from EEG data recorded from a particular ADHD subject. The black dots in FIGS. 6A-6D show the locations of the EEG electrodes. The color codes in these BNA patterns are the same as defined above. The subject-specific BNA patterns shown in FIGS. 6A-6B describe the association of the ADHD subject to a group of untreated ADHD subjects, and the BNA patterns shown in FIGS. 6C-6D describe the association of the ADHD subject to a group of ADHD subjects all treated with methylphenidate (MPH). The subject-specific BNA patterns shown in FIGS. 6A and 6C are based on EEG data recorded from the ADHD subject before any treatment, and subject-specific BNA patterns shown in FIGS. 6B and 6D are based on EEG data recorded from the ADHD subject following a treatment with MPH.
The baseline annotated BNA pattern constructed from the group of untreated ADHD subjects, and the baseline annotated BNA pattern constructed from the same group of subjects, but following treatment with MPH are shown in FIGS. 6E and 6F, respectively.
The calculated similarity corresponding to the BNA pattern of FIG. 6A is 0.73, the calculated similarity corresponding to the BNA pattern of FIG. 6B is 0.19, the calculated similarity corresponding to the BNA pattern of FIG. 6C is 0.56, and the calculated similarity corresponding to the BNA pattern of FIG. 6D is 0.6.
The BNA patterns shown in FIGS. 7A-7D were constructed from EEG data recorded from a different ADHD subject, which was also treated with MPH according to the same protocol as described above with respect to the responder subject of FIGS. 6A-6D. The black dots in FIGS. 7A-7D show the locations of the EEG electrodes, and the color codes in these BNA patterns is the same as defined above. Thus, the subject-specific BNA patterns shown in FIGS. 7A-7B describe the association of the ADHD subject to a group of untreated ADHD subjects, and the BNA patterns shown in FIGS. 7C-7D describe the association of the ADHD subject to a group of ADHD subjects all treated with methylphenidate (MPH). The subject-specific BNA patterns shown in FIGS. 7A and 7C are based on EEG data recorded from the ADHD subject before any treatment, and subject-specific BNA patterns shown in FIGS. 7B and 7D are based on EEG data recorded from the ADHD subject following a treatment with MPH.
The calculated similarity corresponding to the BNA pattern of FIG. 7A is 0, the calculated similarity corresponding to the BNA pattern of FIG. 7B is 0, the calculated similarity corresponding to the BNA pattern of FIG. 7C is 0.06, and the calculated similarity corresponding to the BNA pattern of FIG. 7D is 0.

[1] = test system: healthy volunteer subjects; assay: BNA pattern similarity from EEG data of healthy volunteers during attention oddball task, scopolamine vs placebo
From the text: FIGS. 8A-8D show associated subject-specific BNA patterns constructed from EEG data recorded from two healthy volunteer subjects. The black dots in FIGS. 8A-8D show the locations of the EEG electrodes, and the color codes in these BNA patterns are the same as defined above. The subject-specific BNA patterns shown in FIGS. 8A-8D describe the association of the subjects to a group of healthy subjects following treatment with a placebo drug and while performing an attention task related oddball task.
FIGS. 8A and 8C are subject-specific BNA patterns constructed from EEG data collected from a first subject (FIG. 8A) and a second subject (FIG. 8C) following treatment with a placebo, and FIGS. 8B and 8D are subject-specific BNA patterns constructed from EEG data collected from the first subject (FIG. 8B) and the second subject (FIG. 8D) following treatment with a scopolamine drug. Scopolamine is an anticholinergic drug with inhibitory effect on M2-cholinergic receptors of excited type. It has an inhibitory effect on the cerebral cortex, typically inducing slight-anesthetic effect.
(§1) The calculated similarities are 0.937, 0.079, 1.0 and 0.94, respectively. It is recognized by the present inventors that these similarity values indicate that the responsivity to scopolamine is high for the first subject (FIGS. 8A and 8B) and low for the second subject (FIGS. 8C and 8D).

[2] = test system: healthy volunteer subjects; assay: Clinical observation of behavioral endpoint following scopolamine; details: following treatment with scopolamine
From the text: as §1

healthy volunteers = assay: Scopolamine induced cognitive impairment model, ΔBNA scores in Auditory Oddball Task; details: scopolamine 0.4 mg, Novel stimulus, connectivity score; only 2 patients on placebo
From the text: The task chosen for this study was the Auditory Oddball Task, but other tasks are not excluded from the scope of the present invention. FIG. 21 is a schematic representation of an Auditory Oddball Task used in this study. The task included 600 repetitive 1000 ms auditory stimulations of which 80% were 2000 Hz stimuli (Frequent—blue circles), 10% were 1000 Hz stimuli requiring a motor response (Target—red circles) and 10% were rare non-targets composed of various sounds (Novel—yellow star). The stimuli were separated by 1500 ms intervals. The sound was delivered through a headset at a sound pressure level of 70 dB.
• Repeatability: Within-subject BNA score repeatability was assessed by computing the Intraclass Correlation. • Normality Tests: Normality of ΔBNA distributions was evaluated using the Kolmogorov-Smirnov test of normality (p≥0.200) and validated with corresponding Q-Q plots. • SEM Computation: The change over time in the BNA Scores of a subject/patient from baseline (ΔBNA) is evaluated in terms of standard error of measurements (SEM) against the Normative Database to determine likelihood of true change.
A pharmacological model study included 13 healthy volunteers of both genders, Aged 18-45. […] The second and third sessions were at random order, double blind. ΔBNA Score values (Baseline—Placebo and Baseline—Drug) were evaluated against SEM values. […]

Compound | central and frontal activation in the group BNA pattern (groups of subjects) | fronto-parietal part of the group BNA pattern (groups of subjects) | right lateralization in the group BNA pattern (groups of subjects) | responsiveness to treatment inferred from similarity values (ADHD subject; ADHD subject of FIGS. 6A-6D) | responsiveness to treatment inferred from similarity values (ADHD subject; ADHD subject of FIGS. 7A-7D) | BNA pattern similarity to baseline BNA pattern of untreated ADHD group (ADHD subject; different ADHD subject, following MPH (FIG. 7B), 0 before treatment) | BNA pattern similarity to baseline BNA pattern of MPH-treated ADHD group (ADHD subject; different ADHD subject, following MPH (FIG. 7D), 0.06 before treatment) | BNA pattern similarity to baseline BNA pattern of untreated ADHD group (ADHD subject; responder ADHD subject, following single dose MPH (FIG. 6B), 0.73 before treatment) | BNA pattern similarity to baseline BNA pattern of MPH-treated ADHD group (ADHD subject; responder ADHD subject, following single dose MPH (FIG. 6D), 0.56 before treatment) | responsivity to scopolamine ([1]; first subject (FIGS. 8A and 8B)) | BNA pattern similarity to baseline BNA pattern of placebo-treated healthy group ([1]; first subject, following scopolamine (FIG. 8B), 0.937 after placebo) | responsivity to scopolamine ([1]; second subject (FIGS. 8C and 8D)) | BNA pattern similarity to baseline BNA pattern of placebo-treated healthy group ([1]; second subject, following scopolamine (FIG. 8D), 1.0 after placebo) | decrease in behavioral endpoint ([2]; first subject) | change in behavioral endpoint ([2]; second subject) | patients with post-treatment BNA scores more than 2 SEM lower than the baseline score (healthy volunteers)
CNC1(c2ccccc2Cl)CCCCC1=O (stereo not drawn) [ketamine] | increased central and frontal activation | No significant change | decreased right lateralization | – | – | – | – | – | – | – | – | – | – | – | – | –
COC(=O)C(c1ccccc1)C1CCCCN1 (stereo not drawn) [MPH, methylphenidate] | – | – | – | responsive to the treatment | not responsive to the treatment | 0 | 0 | 0.19 | 0.6 | – | – | – | – | – | – | –
CN1[C@@H]2C[C@@H](OC(=O)[C@H](CO)c3ccccc3)C[C@H]1[C@@H]1O[C@@H]12 [scopolamine] | extensive compensatory central and frontal activation | low connectivity between frontal and parietal regions | – | – | – | – | – | – | – | high | 0.079 | low | 0.94 | 70% | no change | Eight out of 13
